Reference: patent US20260248799A1, “COMBINATIONS OF RETINALDEHYDE DEHYDROGENASE 1 (RALDH1) INHIBITORS AND IMMUNOSTIMULATORS AND METHODS USING SAME” (The Trustees of the University of Pennsylvania, priority 2023, published 2026)
“Also recorded” adds a separate entry of the source. Where two headings read alike, the source gives them in different places.

Key:
[1] = system: murine HCC cell line (Hepa1-6); experiment: AldeRed assay in Hepa1-6 cells; type: cell-based, mouse
Experimental: Cultures of tumor cells or primary monocyte-derived cells were treated with C86, C91, C99, BMS 493 (Tocris, 3509) or Win 18446 (Tocris, 4736) at a time and concentration indicated in corresponding figure legends.
(§1) The AldeRed assay (EMD Millipore) was performed according to manufacturer's instructions to identify cells with ALDH activity. In brief, single-cell suspensions of Huh7, Huh1, SNU449, SNU398, HEP3B, PLC, Hepa 1-6, Hep55, and AL458A cultured cells or single-cell suspension generated from enzymatic digestion of tumors generated from transplantation of these cells in mice (as indicated in figure legends) were incubated with a fluorescent and non-toxic ALDH substrate (AldeRed 588-A); the fluorescent product accumulates in cells proportional to their ALDH activity. The amount of fluorescence produced is measured by flow cytometry. The ALDH inhibitor diethylaminobenzaldehyde (DEAB, provided with the AldeRed assay kit) was used as a negative control for background fluorescence assessment.

[2] = system: human RALDH isozymes; experiment: IC50 on human RALDH isozymes (FIG. 29A); type: biochemical
[3] = system: Hepa 1-6 tumors; experiment: Hepa 1-6 tumors in mice; type: in vivo, mouse
Experimental: FIGS. 28A-28G: C99 inhibits murine RALDH1 and suppresses murine HCC growth. FIG. 28A: AldeRed assay was performed on Hepa1-6 (murine HCC, left graph) and SNU398 (human HCC, right graph) cells with or without different concentration of C99 (x-axis). Shown is the percentage of AldeRed-positive cells (y-axis) after 24 hours exposure to C99. Murine RALDH1 is sensitive to C99. FIG. 28B: Hepa1-6 cells were treated with different concentrations of C99 in vitro and the number of viable cells were counted at different time points. […] FIG. 28C: C57BL6/J mice were implanted subcutaneously with Hepa1-6 cells and the tumor-bearing mice. To prevent spontaneous rejection of this cell line, mice were treated with anti-CD3. Once the tumors reached around 50 mm^3 size, mice were treated with C86 or C99 (i.p., 20 mg/kg) every day. […] C99, but not C86, suppresses murine HCC growth. Two independent experiments were performed with at least three replicates per experimental group. Unpaired t test, two-tailed. FIG. 28D: Tumors in (FIG. 28C) were harvested at endpoint, single-cell suspension generated, and AldeRed assay was performed along with surface staining with immune cell markers. Shown is the percentage of AldeRed-positive cells in nonleukocytes (CD45 negative, mostly tumor cells) under the different treatment conditions. Two independent experiments were performed with at least three replicates per experimental group. Unpaired t test, two-tailed. FIG. 28E: FCS base frequency of Macrophages (F4/80^+ cells) within CD45^+ leukocytes in tumor tissues from experiment outlined in (FIGS. 28C-28D). Two independent experiments were performed with at least three replicates per experimental group. Unpaired t test, two-tailed. FIG. 28F: Hepa1-6 tumor-bearing NU/J mice were treated with chlodronate liposomes (CloLipo) and/or C86/C99. CloLipo treatment suppresses tumor growth and renders tumors insensitive to C99. Two independent experiments were performed with at least three replicates per experimental group. Unpaired t test, two-tailed. FIG. 28G: The murine fibrosarcoma (FS) cell line was implanted subcutaneously into C57BL6/J mice. Mice were treated with 25 mg/kg of C-99 or vehicle everyday starting one day after tumor cell transplantation. *, P<0.05; **, P<0.01; ***, P<0.001; ns, not significant.
(§2) Cultured Huh7, Huh1, Hepa 1-6, Hep55, and FS (as indicated in figure legends) tumor cells were detached using 0.25% trypsin (Gibco, catalog #25200056), washed once with 1×PBS, and counted before implantation. 3~6×10^6 tumor cells were implanted subcutaneously (s.c.) into shaved flanks of recipient mice. Tumor dimensions were measured using a caliper starting at the day indicated in the accompanying figure legend and every two to three days thereafter; volume was calculated by using formula Length*Width^2/2. Tumor volumes of 2,000 mm^3, tumor length of 2 cm or tumor ulceration were used as endpoints for survival analyses.
To deplete T cells, 200 μg of mouse CD3-specific antibody (clone 17A2) was administered i.p. starting three days before tumor implantation and repeated every three to four days until mouse sacrifice. To deplete macrophages, 200 μL of clodronate liposome (CloLipo) or PBS-liposome (CtrlLipo) (both Liposoma) was administered i.p. starting three days prior to tumor implantation and repeated every four days until mouse sacrifice. Macrophage depletion efficacy in spleen and within tumors was confirmed by flow cytometry using canonical macrophage marker F4/80. […]

[4] = system: SNU398 human HCC cells; experiment: AldeRed (Aldefluor) assay in SNU398 cells; type: cell-based
Experimental: as §1
The Aldefluor assay has been used to identify and isolate cells with high ALDH activities. This assay is based on the principle that ALDH can convert the ALDH-substrate, Bodipy-aminoacetaldehyde (BAAA) into Bodipy-aminoacetate (BAA) which is retained inside the cells. BAAA is uncharged and can diffuse freely into intact viable cells, however BAA cannot cross the membrane due to its net negative charge, which makes remain in the cells and the assay buffer prevents efflux of the BAA from the cells. Therefore, the amount of BAA fluorescence in cells is proportional to ALDH activity and can be measured using a flow cytometer. A specific inhibitor of ALDH, diethylaminobenzaldehyde (DEAB), is used for background fluorescence control.

[5] = system: murine fibrosarcoma (FS) cell line; experiment: FS murine fibrosarcoma in C57BL6/J mice; type: in vivo, mouse; conditions: 25 mg/kg everyday
Experimental: FIGS. 28A-28G: C99 inhibits murine RALDH1 and suppresses murine HCC growth. FIG. 28A: AldeRed assay was performed on Hepa1-6 (murine HCC, left graph) and SNU398 (human HCC, right graph) cells with or without different concentration of C99 (x-axis). Shown is the percentage of AldeRed-positive cells (y-axis) after 24 hours exposure to C99. Murine RALDH1 is sensitive to C99. FIG. 28B: Hepa1-6 cells were treated with different concentrations of C99 in vitro and the number of viable cells were counted at different time points. […] FIG. 28C: C57BL6/J mice were implanted subcutaneously with Hepa1-6 cells and the tumor-bearing mice. To prevent spontaneous rejection of this cell line, mice were treated with anti-CD3. Once the tumors reached around 50 mm^3 size, mice were treated with C86 or C99 (i.p., 20 mg/kg) every day. […] C99, but not C86, suppresses murine HCC growth. Two independent experiments were performed with at least three replicates per experimental group. […]
as §2, with “3~6×10^6 tumor cells were implanted subcutaneously (s.c.) into shaved flanks of recipient mice.” left out, “Tumor volumes of 2,000 mm^3, tumor length of 2 cm or tumor ulceration were used as endpoints for survival analyses.” left out

[6] = system: Hepa 1-6 cells; experiment: In vitro proliferation and viability of Hepa 1-6 cells; type: cell-based, mouse; conditions: murine HCC cell line Hepa 1-6
[7] = Pharmacokinetics IV and PO in CD-1 mice, plasma; type: in vivo; conditions: mouse plasma
From the text: The PK studies were done at NIH or a commercial CRO—Pharmacon using their in-house standard protocol. […] For C99, IV and PO, performed at NIH using CD-1 mice; formulation: 20% HPbCD in saline.

[8] = system: SNU398 cells; experiment: RT-qPCR of Raldh1, Raldh2 and Raldh3 transcripts in SNU398 cells; type: cell-based, human; conditions: SNU398, 24 hours
Experimental: FIG. 21A: Transcript levels (RT-qPCR) of Raldh1, Raldh2 and Raldh3 in SNU398 cells treated with different concentrations of C86 or C91 for 24 hours. FIG. 21B: Homology modeling identifies differences in amino acid residues between human and murine RALDH1 at sites predicted to bind RALDH1-INH. FIG. 21C: SNU398 cells were treated with various concentrations of C86 or C91 for 24 hours. Cell viability was measured by flow cytometry (FCM) with 7-AAD staining (Y-axis indicates percentage of 7-AAD negative cells).
Total RNA from mouse tissue samples and in vitro cultured cells was isolated using GenElute Mammalian Total RNA Miniprep Kit (Sigma) following the manufacturer's protocol. Total RNA from human FFPE samples was isolated by using Quick-RNA FFPE Miniprep Kit (Zymo Research) using the manufacturer's protocol. 1000 ng of RNA was used for reverse transcription using High Capacity RNA to cDNA Kit (Life Technologies). The cDNA product was 10× diluted. 2.5 μL of this cDNA was used for qPCR for each sample. Three or more replicates were used for each reaction. […] Expression fold was calculated as 2^−(CT target gene−CT housekeeping gene). Quantitative PCRs were run on a Viia 7 real time PCR system (ThermoFisher). The following target and housekeeping genes were measured using the commercially available TaqMan probes (ThermoFisher): […]

[9] = mouse, in vivo
Experimental: Male CD1 or C57BL/6J mice between 6 and 8 weeks old and weighing approximately 20 to 30 grams were dosed with compound 86, compound 91, and compound 99 at 2 mg/kg (IV), 10 mg/kg (PO), and 10 or 30 mg/kg (IP). The compounds were formulated using a 20% hydroxypropyl-beta-cyclodextrin (HPbCD) solution in saline, was made on the day of dosing or directly prior to dosing. Each treatment group consisted of three mice, and plasma was collected at 5 minutes, 15 minutes, 30 minutes, 1 hour, 2 hours, 4 hours, 8 hours, 12 hours, and 24 hours post-dose for IV administration and at 15 minutes, 30 minutes, 1 hour, 2 hours, 4 hours, 8 hours, 12 hours, and 24 hours post-dose for PO administration. Approximately 0.025 mL of blood was collected from the dorsal metatarsal vein at each time point. […] Plasma samples were then stored in polypropylene tubes, quickly frozen, and kept at −75° C. until analyzed by LC/MS/MS. The following pharmacokinetic parameters were measured: Terminal half-life (T½), Concentration at immediately after injection (C0), Maximum concentration (Cmax), Time to reach max concentration (Tmax), Clearance (CL), Volume of distribution (Vd), Area under the curve (AUClast), and bioavailability (% F). Animals were also monitored during the in-life phase by once daily cage side observations; any adverse clinical signs were noted as part of the PK report.

[10] = system: SNU398 cells; experiment: In vitro proliferation and viability of human HCC cell lines; type: cell-based
Experimental: FIG. 20D: LC-MS for ATRA on Hepa1-6 (mouse HCC cell line) or SNU398 (human HCC cell line). […] Two independent experiments were performed with at least three replicates per experimental group. Unpaired t test, two-tailed. *, P<0.05; **, P<0.01; ***, P<0.001. […] Cell proliferation was measured by counting live cell numbers at each time point. […] Cell proliferation was measured by counting live cell numbers at each time point.
Cell viability was measured by flow cytometry (FCM) with 7-AAD staining (Y-axis indicates percentage of 7-AAD negative cells).
1×10^4~2×10^5 of Huh7, Huh1, Hepa 1-6, and Hep55 tumor cells were plated in triplicate in 48-well plates or 6-well plates. Viable cell numbers were counted every day for three to four days.

[11] = male, CD-1, intravenous administration, 2 mg/kg
[12] = male, CD-1, oral administration, 10 mg/kg
[13] = intravenous administration, 2 mg/kg

## C=CS(=O)(=O)N1CCN(c2c(C(=O)N3CCN(S(C)(=O)=O)CC3)cnc3ccc(F)cc23)CC1 [Compound C-99, (6-fluoro-4-(4-(vinylsulfonyl)piperazin-1-yl)quinolin-3-yl)(4-(methylsulfonyl)piperazin-1-yl)methanone]
[1]; murine HCC cell line, 24 hours exposure
  RALDH1 activity (AldeRed-positive cells): suppressed RALDH1 activity
[2]
  IC50 relative to C86: significantly greater than that of C86
[3]; Hepa 1-6, CloLipo-treated
  sensitivity of TAM-depleted tumors to treatment: insensitive to C99 treatment
[3]; Hepa 1-6 in C57BL6/J mice treated with anti-CD3, i.p., 20 mg/kg every day
  tumor growth in vivo: significantly suppressed tumor growth in vivo
[3]; Hepa 1-6 tumors at endpoint
  frequency of TAMs within the TME: reduced
[3]; Hepa 1-6 tumors at endpoint, CD45 negative cells
  AldeRed activity in tumor cells: reduced AldeRed activity in tumor cells
[4]; AldeRed assay, FIG. 28A and FIG. 20A
  concentration range suppressing RALDH1 activity: micromolar
[4]; human HCC cell line, 24 hours exposure
  RALDH1 activity (AldeRed-positive cells): suppressed RALDH1 activity
[5]
  fibrosarcoma growth: did not suppress fibrosarcoma growth
[6]
  proliferation or viability in vitro: did not reduce proliferation or viability
[7]; [11]
  AUC(0-inf): 37 ng·h/mL
  half-life: 6 min
[7]; male, CD-1, intravenous administration, 2 mg/kg, read-out: CLp
  clearance: 887 mL/min/kg
[7]; male, CD-1, intravenous administration, 2 mg/kg, read-out: Cmax
  Cmax: 117 ng/mL
[7]; male, CD-1, intravenous administration, 2 mg/kg, read-out: Vss
  Vd: 2.7 L/kg
[7]; [12]
  AUC(0-inf): 11 ng·h/mL
  half-life: 30 min
[7]; male, CD-1, oral administration, 10 mg/kg, read-out: Cmax
  Cmax: 16 ng/mL
[7]; oral administration, 10 mg/kg
  F: 6.3%

## CS(=O)(=O)N1CCN(C(=O)c2cnc3ccc(F)cc3c2-c2ccc(C3(C#N)CC3)cc2)CC1 [Compound C-91, 1-(4-(6-fluoro-3-(4-(methylsulfonyl)piperazine-1-carbonyl)quinolin-4-yl)phenyl)cyclopropane-1-carbonitrile]
[1]; murine HCC cell line Hepa1-6, 24 hours
  AldeRed fluorescence: no change in AldeRed fluorescence; also recorded: failed to reduce AldeRed fluorescence
[8]
  transcription of other RALDH isozymes: did not lead to compensatory increases in transcription
[4]; FIGS. 7-8
  RALDH activity, Aldered assay, in HCC cells: significantly reduced RALDH activity
[4]; SNU398 cells in vitro, 100 nM, DMSO control
  RALDH activity as detected by Aldered (Aldefluor) assay: abrogated
[9]
  signs of toxicity: no signs of toxicity have been observed
[7]; [13]
  AUC0-∞: 1830 ng·h/mL
  Cmax: 1997 ng/mL
  Vss: 1.4 L/kg
[7]; oral administration, 10 mg/kg
  AUC0-∞: 6980 ng·h/mL
  Cmax: 1530 ng/mL
  F: 76%
[10]; SNU398, 1, 10, 100 and 1000 nM
  HCC cell growth in vitro: did not inhibit HCC cell growth in vitro
[10]; live cell counts over 3 days, 7-AAD staining 24 hours
  cell death / cell viability in human HCC cell lines: not due to increased cell death or reduced cell viability
